Experiment [1] relates to cultured human mast cells (CHMC). The experiment in a line: CHMC low cell density IgE activation: tryptase assay. Type of experiment: cell-based. To be noted: anti-IgE. In outline: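 Read-out: tryptase released into supernatant, measured by substrate turnover over 30 min at RT. Low-density CHMC (1000-1500 cells/well, per donor degranulation activity) in MT buffer, 1 hr at 37° C, then anti-IgE challenge 30 min at 37° C.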

Experiment [2] shares this test system. The experiment in a line: CHMC low cell density ionomycin activation: tryptase assay. Type of experiment: cell-based.

With `Cn1ncc2cc(Nc3nc(Nc4cccc(O)c4)ncc3F)ccc21` [R935204, 5-Fluoro-N2-(3-hydroxyphenyl)-N4-(1-methyl-indazoline-5-yl)-2,4-pyrimidinediamine], the IC50 (in general, the concentration that gives 50% inhibition) in experiment [1] is 0.554 µM; in experiment [2], greater than 10 µM.

On to `CCOC(=O)COc1cccc(Nc2ncc(F)c(Nc3cc(OC)cc(OC)c3)n2)c1` [R926795, N4-(3,5-Dimethoxyphenyl)-N2-(3-ethoxycarbonylmethyleneoxyphenyl)-5-fluoro-2,4-pyrimidinediamine], for which the IC50 in experiment [1] was 2.04 µM; in experiment [2] it was greater than 10 µM.

With `Cn1nnnc1COc1ccc(Nc2ncc(F)c(Nc3cccc(O)c3)n2)cc1` [R920861, 5-Fluoro-N4-(3-hydroxyphenyl)-N2-[4-(1-methyl-1,2,3,4-tetrazol-5-yl)methyleneoxyphenyl]-2,4-pyrimidineamine], the results for the IC50 in experiment [1] and in experiment [2] were 0.598 µM and greater than 10 µM, respectively.

In the case of `COC(=O)COc1cccc(Nc2ncc(F)c(Nc3ccc4c(c3)OCCCO4)n2)c1` [R935185, 5-Fluoro-N2-[3-(methoxycarbonylmethyleneoxy)phenyl]-N4-(3,4-propylenedioxyphenyl)-2,4-pyrimidinediamine], the values for the IC50 in experiment [1] and in experiment [2] were 0.351 µM and 6.64 µM, respectively.

For the compound `OCCNc1cccc(Nc2ncc(F)c(Nc3ccc4c(c3)OCCO4)n2)c1` [R950208, N4-(3,4-Ethylenedioxyphenyl)-5-fluoro-N2-[3-(hydroxyethyleneamino)phenyl]-2,4-pyrimidinediamine], the IC50 in experiment [1] is 0.267 µM; in experiment [2], greater than 10 µM.

Turning to `CNC(=O)COc1cc(O)cc(Nc2ncc(F)c(Nc3cccc(O)c3)n2)c1` [R926929, 5-Fluoro-N2-[3-hydroxy-5-[(N-methylamino)carbonylmethyleneoxy]phenyl]-N4-(3-hydroxyphenyl)-2,4-pyrimidinediamine], the 50% inhibitory concentration (IC50) was 1.92 µM in experiment [1] and greater than 10 µM in experiment [2].

`CC(C)(CO)c1ccc(Nc2nc(Nc3ccc4c(c3)OCCO4)ncc2F)cc1` [R935173, N2-(3,4-Ethylenedioxyphenyl)-5-fluoro-N4-[4-(2-hydroxy-1,1-dimethylethyl)phenyl]-2,4-pyrimidinediamine]: the IC50 in experiment [1] was 0.454 µM; in experiment [2], greater than 10 µM.

As for `CNC(=O)COc1cccc(Nc2ncc(F)c(Nc3cccc(C(C)C)c3)n2)c1` [R940288, 5-Fluoro-N4-(3-isopropylphenyl)-N2-[3-(N-methylamino)carbonylmethyleneoxyphenyl]-2,4-pyrimidinediamine], the half-inhibitory concentration (IC50) in experiment [1] was 0.208 µM; in experiment [2], greater than 10 µM.

With `CCOC(=O)COc1cccc(Nc2ncc(F)c(Nc3ccc4c(c3)NC(C)(C)CO4)n2)c1` [R909308], the figures for the IC50 in experiment [1] and in experiment [2] were 0.671 µM and greater than 10 µM, respectively.

Turning to `O=C(CNc1cccc(Nc2ncc(F)c(Nc3ccc4c(c3)OCCO4)n2)c1)N1CCNCC1` [R950197, N4-(3,4-Ethylenedioxyphenyl)-5-fluoro-N2-[3-(N-piperazino)carbonylmethyleneaminophenyl]-5-fluoro-2,4-pyrimidinediamine], the values for the concentration for half-maximal inhibition (IC50) in experiment [1] and in experiment [2] were 0.531 µM and greater than 10 µM, respectively.

Regarding `CNC(=O)COc1cccc(Nc2ncc(F)c(Nc3ccc(OC)c(C(=O)OC)c3)n2)c1` [R940300, 5-Fluoro-N2-[3-(methylaminocarbonylmethyleneoxy)phenyl]-N4-(3-methyloxycarbonyl-4-methoxyphenyl)-2,4-pyrimidinediamine], the results for the IC50 in experiment [1] and in experiment [2] were 10 µM and greater than 10 µM, respectively.

Turning to `CCOc1ccc(Nc2nc(Nc3cccc(OCC(=O)NC)c3)ncc2F)cc1` [R926827, N4-(4-Ethoxyphenyl)-5-fluoro-N2-[3-(N-methylamino)carbonylmethyleneoxyphenyl]-2,4-pyrimidinediamine], the IC50 in experiment [1] is 1.1 µM; in experiment [2] it was greater than 10 µM.

For `CNC(=O)COc1cccc(Nc2ncc(F)c(Nc3ccc(C(C)(C)C)cc3)n2)c1` [R926714, N4-(4-tert-Butylphenyl)-5-fluoro-N2-[3-(N-methylamino)carbonylmethyleneoxyphenyl]-2,4-pyrimidinediamine], the IC50 in experiment [1] was 0.428 µM; in experiment [2] it was greater than 10 µM.

For the compound `CNC(=O)COc1cccc(Nc2ncc(F)c(Nc3cccc(C(N)=O)c3)n2)c1` [R940299, 5-Fluoro-N2-[3-(methylaminocarbonylmethyleneoxy)phenyl]-N4-(3-aminocarbonylphenyl)-2,4-pyrimidinediamine], the IC50 is 2.5 µM in experiment [1] and greater than 10 µM in experiment [2].

`CC(CO)Nc1cccc(Nc2ncc(F)c(Nc3cccc(NC(C)CO)c3)n2)c1` (stereo not shown) [R950171, N2,N4-Bis[3-N-(2-hydroxy-1-methylethyl)aminophenyl]-5-fluoro-2,4-pyrimidinediamine]: the IC50 was 0.585 µM in experiment [1] and greater than 10 µM in experiment [2].

For `CCOC(=O)COc1ccc(Nc2nc(Nc3ccc(OCC(=O)OCC)cc3)c([N+](=O)[O-])c(C(=O)OCC)n2)cc1` [R926566, N2,N4-Bis(4-ethoxycarbonylmethylenedioxyphenyl)-6-ethoxycarbonyl-5-nitro-2,4-pyrimidinediamine], the concentration for half-maximal inhibition (IC50) in experiment [1] was 2.73 µM; in experiment [2] it was greater than 10 µM.

Regarding `CNC(=O)COc1cccc(Nc2ncc(F)c(Nc3ccc(OC(C)C)cc3)n2)c1` [R926730, 5-Fluoro-N4-(4-isopropoxyphenyl)-N2-[3-(N-methylamino)carbonylmethyleneoxyphenyl]-2,4-pyrimidinediamine], the figures for the IC50 in experiment [1] and in experiment [2] were 0.251 µM and greater than 10 µM, respectively.

Turning to `COC(=O)Cn1ncc2cc(Nc3nc(Nc4ccc(OC(C)C)cc4)ncc3F)ccc21` [R935242, 5-Fluoro-N2-(4-isopropoxyphenyl)-N4-[1-(methoxycarbonyl)methyl-indazoline-5-yl]-2,4-pyrimidinediamine], the IC50 in experiment [1] was 2.85 µM; in experiment [2] it was greater than 10 µM.

`CN(C)CCOc1ccc(Nc2ncc(F)c(Nc3cccc(O)c3)n2)cc1` [R909236, N2-[4-(2-N,N-Dimethylamino)ethoxyphenyl]-5-fluoro-N4-(3-hydroxyphenyl)-2,4-pyrimidinediamine]: the IC50 in experiment [1] is 0.996 µM; in experiment [2] it was greater than 10 µM.

As for `CCOC(=O)COc1cccc(Nc2ncc(F)c(Nc3ccc(-n4cnc(Cl)c4Cl)cc3)n2)c1` [R926809, N4-[4-(4,5-Dichloro-1H-imidazol-1-yl)phenyl]-5-fluoro-N2-(3-ethoxycarbonylmethyleneoxyphenyl)-2,4-pyrimidinediamine], the IC50 in experiment [1] turned out to be 0.78 µM; in experiment [2], 3.05 µM.

Take `Cc1nc(COc2cccc(Nc3ncc(F)c(Nc4ccc(OC(C)C)cc4)n3)c2)no1` [R945129, 5-Fluoro-N4-(4-isopropoxyphenyl)-N2-[3-(5-methyl-1,2,4-oxadiazol-3-yl)methyleneoxyphenyl]-2,4-pyrimidinediamine]: the IC50 in experiment [1] was 1 µM; in experiment [2], greater than 10 µM.

In the case of `COc1cc(Nc2ncc(F)c(Nc3ccc4c(cnn4C)c3)n2)cc(OC)c1` [R935214, 5-Fluoro-N2-(3,5-dimethoxyphenyl)-N4-(1-methyl-indazoline-5-yl)-2,4-pyrimidinediamine], the IC50 in experiment [1] worked out at 0.453 µM; in experiment [2] it was 5.5 µM.

Turning to `Cc1cnc(Nc2ccc(OCc3nnn[nH]3)cc2)nc1Nc1cccc(O)c1` [R920820, N4-(3-Hydroxyphenyl)-5-methyl-N2-[4-(1H,1,2,3,4-tetrazol-5-yl)methyleneoxyphenyl]-2,4-pyrimidinediamine], the IC50 in experiment [1] and in experiment [2] was greater than 10 µM in each case.

Consider `C=CCNC(=O)Nc1c(Nc2ccc(OCC(=O)OCC)cc2)nc(Nc2ccc(OCC(=O)OCC)cc2)nc1C(=O)OCC` [R926585], for which the IC50 in experiment [1] and in experiment [2] was greater than 10 µM each time.

`Cn1nnnc1COc1ccc(Nc2nccc(Nc3cccc(O)c3)n2)cc1` [R920917, N4-(3-hydroxyphenyl)-N2-[4-(1-methyl-1,2,3,4-tetrazol-5-yl)methyleneoxyphenyl]-2,4-pyrimidineamine]: the IC50 came to 1.58 µM in experiment [1] and 9.73 µM in experiment [2].

On to `CCOc1ccc(Nc2ncc([N+](=O)[O-])c(Nc3ccc(OCC)cc3)n2)cc1` [R940090, N2,N4-Bis-(4-ethoxyphenyl)-5-nitro-2,4-pyrimidinediamine], for which the IC50 in experiment [1] (Homo sapiens, Mast cell) is greater than 10 µM; in experiment [2] (Homo sapiens, Mast cell), greater than 10 µM.

On to `CC(C)Oc1ccc(Nc2ncc(F)c(Nc3ccc(OCc4nc(-c5ccccc5)no4)cc3)n2)cc1` [R935139, 5-Fluoro-N2-(4-isopropoxyphenyl)-N4-[4-(3-phenyl-1,2,4-oxadiazol-5-yl)methyleneoxyphenyl]-2,4-pyrimidinediamine], for which the results for the IC50 in experiment [1] and in experiment [2] were 0.846 µM and greater than 10 µM, respectively.

`COCCOc1ccc(Nc2ncc(F)c(Nc3ccc(OCCOC)cc3)n2)cc1` [R926342, N2,N4-Bis[4-(2-methoxyethyleneoxy)phenyl]-5-fluoro-2,4-pyrimidinediamine]: the IC50 is 10 µM in experiment [1] and greater than 10 µM in experiment [2].

As to `Fc1cnc(Nc2ccc3[nH]ncc3c2)nc1Nc1ccc(Cl)c(Cl)c1` [R935371, N4-(3,4-Dichlorophenyl)-5-fluoro-N2-(indazoline-5-yl)-2,4-pyrimidinediamine], the 50% inhibitory concentration (IC50) in experiment [1] is 0.794 µM; in experiment [2], greater than 10 µM.

For the compound `Cc1cnc(Nc2ccc(OCc3nnnn3C)cc2)nc1Nc1cccc(O)c1` [R920894, N4-(3-Hydroxyphenyl)-5-methyl-N2-[4-(1-methyl-1,2,3,4-tetrazol-5-yl)methyleneoxyphenyl]-2,4-pyrimidineamine], the half-inhibitory concentration (IC50) in experiment [1] was found to be 0.888 µM; in experiment [2] it was 5.57 µM.

`Cn1ncc2cc(Nc3ncc(F)c(Nc4ccc(Cl)nc4)n3)ccc21` [R935375, N4-(6-Chloro-3-pyridyl)-5-fluoro-N2-(1-methylindazoline-5-yl)-2,4-pyrimidinediamine]: the values for the IC50 in experiment [1] and in experiment [2] were 10 µM and greater than 10 µM, respectively.

Take `CC(O)CNC(=O)COc1cccc(Nc2ncc(F)c(Nc3ccc4c(c3)NCCO4)n2)c1` (stereo not shown) [R909251, N4-(1,4-Benzoxazin-6-yl)-5-fluoro-N2-[3-(N-2-hydroxypropylamino)carbonylmethyleneoxyphenyl]-2,4-pyrimidinediamine]: the IC50 was 0.138 µM in experiment [1] and greater than 10 µM in experiment [2].

The values above are taken from patent US9499493B2, “2,4-pyrimidinediamine compounds and their uses” (Rigel Pharmaceuticals, Inc., priority 2002, dated 2016).
